The text below walks through data of ChEMBL document CHEMBL1687786, “Diversity of staphylococcal cassette chromosome mec elements in predominant methicillin-resistant Staphylococcus aureus clones in a small geographic area” (2010).

Common to all, as to format: functional
The subject of test [1] is Staphylococcus aureus. The experiment in a line: Antimicrobial activity against Staphylococcus aureus clone 2-2 harboring staphylococcal cassette chromosome mec element type U3 assessed as percent susceptible isolates by kirby-bauer method.
Test [2] deals with Staphylococcus aureus. In words: Antimicrobial activity against Staphylococcus aureus clone 2-2 harboring staphylococcal cassette chromosome mec element type 2 assessed as percent susceptible isolates by kirby-bauer method.
The subject of test [3] is Staphylococcus aureus. The experiment in a line: Antimicrobial activity against Staphylococcus aureus clone 3-3 harboring staphylococcal cassette chromosome mec element type 2 assessed as percent susceptible isolates by kirby-bauer method.
In test [4] the test system is Staphylococcus aureus. In words: Antimicrobial activity against Staphylococcus aureus clone 4-4 harboring staphylococcal cassette chromosome mec element type 1 assessed as percent susceptible isolates by kirby-bauer method.
Test [5] relates to Staphylococcus aureus. In words: Antimicrobial activity against Staphylococcus aureus clone 1-1 harboring staphylococcal cassette chromosome mec element type U assessed as percent susceptible isolates by kirby-bauer method.
For test [6], the system named is Staphylococcus aureus. The experiment in a line: Antimicrobial activity against Staphylococcus aureus clone 3-3 harboring staphylococcal cassette chromosome mec element type 1 assessed as percent susceptible isolates by kirby-bauer method.
Test [7] concerns Staphylococcus aureus. The experiment in a line: Antimicrobial activity against Staphylococcus aureus clone 1-1 harboring staphylococcal cassette chromosome mec element type 5 assessed as percent susceptible isolates by kirby-bauer method.
In test [8] the test system is Staphylococcus aureus. The experiment in a line: Antimicrobial activity against Staphylococcus aureus clone 2-2 harboring staphylococcal cassette chromosome mec element type 1 assessed as percent susceptible isolates by kirby-bauer method.
Test [9] has as its system Staphylococcus aureus. The experiment in a line: Antimicrobial activity against Staphylococcus aureus clone 2-2 harboring staphylococcal cassette chromosome mec element type 5 assessed as percent susceptible isolates by kirby-bauer method.
The test system of test [10] is Staphylococcus aureus. The experiment in a line: Antimicrobial activity against Staphylococcus aureus clone 1-1 harboring staphylococcal cassette chromosome mec element type 4 assessed as percent susceptible isolates by kirby-bauer method.
The test system of test [11] is Staphylococcus aureus. The experiment in a line: Antimicrobial activity against Staphylococcus aureus clone 3-3 harboring staphylococcal cassette chromosome mec element type U1 assessed as percent susceptible isolates by kirby-bauer method.
The test system of test [12] is Staphylococcus aureus. In words: Antimicrobial activity against Staphylococcus aureus clone 4-4 harboring staphylococcal cassette chromosome mec element type 4 assessed as percent susceptible isolates by kirby-bauer method.
Test [13] concerns Staphylococcus aureus. In words: Antimicrobial activity against Staphylococcus aureus clone 2-2 harboring staphylococcal cassette chromosome mec element type U5 assessed as percent susceptible isolates by kirby-bauer method.
The test system of test [14] is Staphylococcus aureus. In words: Antimicrobial activity against Staphylococcus aureus clone 2-2 harboring staphylococcal cassette chromosome mec element type 6 assessed as percent susceptible isolates by kirby-bauer method.
Test [15] has as its system Staphylococcus aureus. The experiment in a line: Antimicrobial activity against Staphylococcus aureus clone 4-4 harboring staphylococcal cassette chromosome mec element type 5 assessed as percent susceptible isolates by kirby-bauer method.
The subject of test [16] is Staphylococcus aureus. In words: Antimicrobial activity against Staphylococcus aureus clone 4-4 harboring staphylococcal cassette chromosome mec element type 2 assessed as percent susceptible isolates by kirby-bauer method.
Test [17] relates to Staphylococcus aureus. The experiment in a line: Antimicrobial activity against Staphylococcus aureus clone 4-4 harboring staphylococcal cassette chromosome mec element type U3 assessed as percent susceptible isolates by kirby-bauer method.
Test [18] deals with Staphylococcus aureus. The experiment in a line: Antimicrobial activity against Staphylococcus aureus clone 3-3 harboring staphylococcal cassette chromosome mec element type U6 assessed as percent susceptible isolates by kirby-bauer method.
The test system of test [19] is Staphylococcus aureus. The experiment in a line: Antimicrobial activity against Staphylococcus aureus clone 2-2 harboring staphylococcal cassette chromosome mec element type 4 assessed as percent susceptible isolates by kirby-bauer method.
In test [20] the test system is Staphylococcus aureus. The experiment in a line: Antimicrobial activity against Staphylococcus aureus clone 3-3 harboring staphylococcal cassette chromosome mec element type 6 assessed as percent susceptible isolates by kirby-bauer method.
Test [21] has as its system Staphylococcus aureus. In words: Antimicrobial activity against Staphylococcus aureus clone 3-3 harboring staphylococcal cassette chromosome mec element type 4 assessed as percent susceptible isolates by kirby-bauer method.
Test [22] relates to Staphylococcus aureus. In words: Antimicrobial activity against Staphylococcus aureus clone 3-3 harboring staphylococcal cassette chromosome mec element type U8 assessed as percent susceptible isolates by kirby-bauer method.

For the compound `CO/N=C(\C(=O)N[C@@H]1C(=O)N2C(C(=O)O)=C(CSc3nc(=O)c(O)nn3C)CS[C@H]12)c1csc(N)n1` [CEFTRIAXONE], the Activity in the test with Staphylococcus aureus [1], in the test with Staphylococcus aureus [2], in the test on Staphylococcus aureus [3], in the test on Staphylococcus aureus [4], in the test on Staphylococcus aureus [5] and in the test on Staphylococcus aureus [6] was 0% in each case. The Activity came to 0% in the test with Staphylococcus aureus [7]; 11% in the test with Staphylococcus aureus [8]; 11% in the test on Staphylococcus aureus [9]; 2% in the test on Staphylococcus aureus [10]; 0% with Staphylococcus aureus [11]; 0% in the test on Staphylococcus aureus [12]. Also, the Activity in the test with Staphylococcus aureus [13], in the test on Staphylococcus aureus [14], in the test on Staphylococcus aureus [15], in the test with Staphylococcus aureus [16], with Staphylococcus aureus [17] and with Staphylococcus aureus [18] was 0% throughout. The Activity with Staphylococcus aureus [19], in the test with Staphylococcus aureus [20] and in the test with Staphylococcus aureus [21] was 0% throughout.

For `CCC[C@@H]1C[C@@H](C(=O)N[C@@H]([C@H]2O[C@H](SC)[C@H](O)[C@@H](O)[C@H]2O)[C@H](C)Cl)N(C)C1` [CLINDAMYCIN], the Activity in the test with Staphylococcus aureus [1] stood at 100%; in the test on Staphylococcus aureus [2] it was 38%; in the test on Staphylococcus aureus [4] it was 1%; in the test with Staphylococcus aureus [5], 100%; in the test on Staphylococcus aureus [6] it was 0%; with Staphylococcus aureus [7], 100%. Also, the Activity with Staphylococcus aureus [8] is 89%; in the test on Staphylococcus aureus [9], 89%; in the test on Staphylococcus aureus [10], 98%; in the test on Staphylococcus aureus [11], 100%; with Staphylococcus aureus [13], 100%; in the test on Staphylococcus aureus [14] it was 100%. Also, the Activity with Staphylococcus aureus [15] is 100%; in the test on Staphylococcus aureus [16] it was 0%; in the test with Staphylococcus aureus [17] it was 100%; in the test on Staphylococcus aureus [18] it was 50%; in the test on Staphylococcus aureus [19], 56%; in the test with Staphylococcus aureus [20], 100%. Further, the values for the Activity in the test on Staphylococcus aureus [21] and in the test on Staphylococcus aureus [22] were 79% and 95%, respectively.

For the compound `CC[C@H]1OC(=O)[C@H](C)[C@@H](O[C@H]2C[C@@](C)(OC)[C@@H](O)[C@H](C)O2)[C@H](C)[C@@H](O[C@@H]2O[C@H](C)C[C@H](N(C)C)[C@H]2O)[C@](C)(O)C[C@@H](C)C(=O)[C@H](C)[C@@H](O)[C@]1(C)O` [ERYTHROMYCIN], the Activity was 100% with Staphylococcus aureus [1]; 1% in the test with Staphylococcus aureus [2]; 1% with Staphylococcus aureus [4]; 100% in the test on Staphylococcus aureus [5]; 0% in the test with Staphylococcus aureus [6]; 100% in the test on Staphylococcus aureus [7]. For the same compound, the Activity in the test with Staphylococcus aureus [8] turned out to be 67%; in the test on Staphylococcus aureus [9], 89%; in the test on Staphylococcus aureus [10], 98%; in the test on Staphylococcus aureus [11], 100%; in the test on Staphylococcus aureus [13], 0%; in the test on Staphylococcus aureus [15], 100%. For the same compound, the Activity stood at 0% with Staphylococcus aureus [16]; 0% in the test with Staphylococcus aureus [17]; 50% with Staphylococcus aureus [18]; 39% with Staphylococcus aureus [19]; 100% in the test with Staphylococcus aureus [20]; 98% with Staphylococcus aureus [22].

Take `CC(=O)O[C@H]1C[C@@]2(C)[C@@H](C[C@@H](O)[C@H]3[C@@]4(C)CC[C@@H](O)[C@@H](C)[C@@H]4CC[C@@]32C)/C1=C(\CCC=C(C)C)C(=O)O` [FUSIDIC ACID]: the Activity turned out to be 100% in the test with Staphylococcus aureus [1]; 98% in the test on Staphylococcus aureus [2]; 99% in the test with Staphylococcus aureus [4]; 0% in the test with Staphylococcus aureus [5]; 0% in the test with Staphylococcus aureus [6]; 100% in the test on Staphylococcus aureus [7]. Moreover, the Activity was determined as 0% in the test with Staphylococcus aureus [8]; 100% with Staphylococcus aureus [9]; 83% in the test on Staphylococcus aureus [10]; 100% in the test on Staphylococcus aureus [12]; 100% in the test with Staphylococcus aureus [13]; 100% in the test with Staphylococcus aureus [14]. Also, the Activity in the test on Staphylococcus aureus [15] worked out at 50%; with Staphylococcus aureus [16] it was 100%; in the test on Staphylococcus aureus [17], 100%; in the test with Staphylococcus aureus [18], 50%; with Staphylococcus aureus [19], 100%; with Staphylococcus aureus [20], 0%. The Activity in the test with Staphylococcus aureus [21] was 96%; with Staphylococcus aureus [22], 100%.

As for `CO[C@H]1/C=C/O[C@@]2(C)Oc3c(C)c(O)c4c(O)c(c(/C=N/N5CCN(C)CC5)c(O)c4c3C2=O)NC(=O)/C(C)=C\C=C\[C@H](C)[C@H](O)[C@@H](C)[C@@H](O)[C@@H](C)[C@H](OC(C)=O)[C@@H]1C` [RIFAMPIN], the Activity in the test on Staphylococcus aureus [1] worked out at 100%; in the test with Staphylococcus aureus [2] it was 100%; in the test with Staphylococcus aureus [3], 100%; with Staphylococcus aureus [4], 96%; in the test on Staphylococcus aureus [5], 100%; in the test on Staphylococcus aureus [6], 100%. Besides, the Activity in the test on Staphylococcus aureus [7], with Staphylococcus aureus [8], in the test on Staphylococcus aureus [9], with Staphylococcus aureus [10], with Staphylococcus aureus [11] and in the test on Staphylococcus aureus [12] was 100% each time. The Activity with Staphylococcus aureus [13], with Staphylococcus aureus [14], in the test on Staphylococcus aureus [15], in the test with Staphylococcus aureus [16], with Staphylococcus aureus [17] and with Staphylococcus aureus [18] was 100% in each case. In addition, the Activity worked out at 94% in the test with Staphylococcus aureus [19], 100% in the test on Staphylococcus aureus [20], 100% with Staphylococcus aureus [21] and 100% in the test with Staphylococcus aureus [22].

Turning to GENTAMICIN, the Activity came out at 100% in the test on Staphylococcus aureus [1]; 100% in the test on Staphylococcus aureus [2]; 100% in the test on Staphylococcus aureus [3]; 95% in the test with Staphylococcus aureus [4]; 100% in the test with Staphylococcus aureus [5]; 97% in the test on Staphylococcus aureus [6]. Moreover, the Activity with Staphylococcus aureus [7] is 100%; in the test with Staphylococcus aureus [8] it was 100%; in the test on Staphylococcus aureus [9], 0%; in the test with Staphylococcus aureus [10] it was 98%; in the test with Staphylococcus aureus [11], 100%; in the test on Staphylococcus aureus [12], 100%. Further, the Activity in the test with Staphylococcus aureus [13] turned out to be 100%; with Staphylococcus aureus [14] it was 100%; with Staphylococcus aureus [15], 100%; in the test with Staphylococcus aureus [16] it was 3%; in the test with Staphylococcus aureus [17], 100%; with Staphylococcus aureus [18], 100%. Moreover, the Activity with Staphylococcus aureus [19] came to 94%; with Staphylococcus aureus [20] it was 100%; in the test on Staphylococcus aureus [21] it was 100%; in the test with Staphylococcus aureus [22] it was 100%.
